Reference: US20130252935A1, “Monobactams” (PFIZER INC., priority 2010, published 2013)
In brackets after ≈: the same amount, converted by molar mass.

Tests used:
Format in all cases: cell-based
[1] = system: Pseudomonas aeruginosa UC-12120; assay: minimum inhibitory concentration (MIC) testing according to CLSI guidelines, Pseudomonas aeruginosa; conditions: Pseudomonas aeruginosa, UC12120; UC-12120, wild-type, labeled as 1091-05; overnight incubation; lower of duplicate values; read-out: AB-MBT: Pseudomonas aeruginosa 1091-05: MIC (MstRcn)
In short: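 Broth dilution MIC per CLSI guidelines against wild-type P. aeruginosa UC-12120 (1091-05), using 2-fold drug dilutions and overnight incubation with visual reading of lowest growth-inhibiting concentration. Tested in duplicate; lower value reported when within 2-fold, with control organisms and reference compounds for quality control.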

[2] = system: Klebsiella pneumoniae 1000-02; assay: minimum inhibitory concentration (MIC) testing according to CLSI guidelines, Klebsiella pneumoniae; conditions: Klebsiella pneumoniae; ciprofloxacin-resistant, ESBL-expressing clinical isolate 1000-02; overnight incubation; lower of duplicate values; read-out: AB-MBT: Klebsiella pneumoniae 1000-02: MIC (MstRcnt)
In short: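 MIC by CLSI broth dilution with 2-fold concentration steps and overnight incubation; lowest concentration visibly inhibiting growth versus drug-free control. Ciprofloxacin-resistant, ESBL-expressing clinical isolate 1000-02. Run in duplicate, lower value reported when within 2-fold, with QC organisms and reference compounds per run.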

[3] = system: Acinetobacter baumannii/haemolyticus AB-3167; assay: minimum inhibitory concentration (MIC) testing according to CLSI guidelines, Acinetobacter; conditions: Acinetobacter baumannii; multidrug-resistant clinical isolate AB-3167; overnight incubation; lower of duplicate values; read-out: AB-MBT: Acinetobacter baumanii AB-3167: MIC (MstRcnt)
In short: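 Broth dilution MIC per CLSI M7-A8/M100-S20 against multidrug-resistant clinical isolate AB-3167, using 2-fold drug dilutions and overnight incubation; MIC is the lowest concentration without visible growth. Duplicates within 2-fold reported as the lower value, with control strains and reference compounds in range.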

For `N#C/N=C(\NCc1cc(=O)c(O)cn1O)NC[C@@H]1[C@H](NC(=O)/C(=N\OC2(C(=O)O)CCC2)c2csc(N)n2)C(=O)N1S(=O)(=O)O` [Example 63, 1-({[(1Z)-1-(2-amino-1,3-thiazol-4-yl)-2-{[(2R,3S)-2-({[(Z)-(cyanoimino){[(1,5-dihydroxy-4-oxo-1,4-dihydropyridin-2-yl)methyl]amino}methyl]amino}methyl)-4-oxo-1-sulfoazetidin-3-yl]amino}-2-oxoethylidene]amino}oxy)cyclobutanecarboxylic acid], the MIC [1] was 0.25 µg/mL (≈ 0.374 µM), the MIC [2] was 1 µg/mL (≈ 1.5 µM) and the MIC [3] was 0.5 µg/mL (≈ 0.748 µM).
`Nc1nc(/C(=N/OC2(C(=O)O)CCC2)C(=O)N[C@@H]2C(=O)N(S(=O)(=O)O)[C@@H]2CNC(=O)c2cccc(C(=O)NCc3cc(=O)c(O)cn3O)c2)cs1` [Example 64, 1-({[(1Z)-1-(2-amino-1,3-thiazol-4-yl)-2-{[(2R,3S)-2-{[(3-{[(1,5-dihydroxy-4-oxo-1,4-dihydropyridin-2-yl)methyl]carbamoyl}benzoyl)amino]methyl}-4-oxo-1-sulfoazetidin-3-yl]amino}-2-oxoethylidene]amino}oxy)cyclobutanecarboxylic acid] gave an MIC [1] of 1 µg/mL (≈ 1.34 µM), an MIC [2] of 0.25 µg/mL (≈ 0.334 µM) and an MIC [3] of 0.5 µg/mL (≈ 0.668 µM).
Work on `Nc1nc(/C(=N/OC2(C(=O)O)CCC2)C(=O)N[C@@H]2C(=O)N(S(=O)(=O)O)[C@@H]2CNC(=O)C(=O)NCc2cc(=O)c(O)cn2O)cs1` [Example 65, 1-({[(1Z)-1-(2-amino-1,3-thiazol-4-yl)-2-{[(2R,3S)-2-({[{[(1,5-dihydroxy-4-oxo-1,4-dihydropyridin-2-yl)methyl]amino}(oxo)acetyl]amino}methyl)-4-oxo-1-sulfoazetidin-3-yl]amino}-2-oxoethylidene]amino}oxy)cyclobutanecarboxylic acid] yielded an MIC [1] of 0.06 µg/mL (≈ 0.0892 µM), an MIC [2] of 0.25 µg/mL (≈ 0.372 µM) and an MIC [3] of 0.125 µg/mL (≈ 0.186 µM).
For `Nc1nc(/C(=N/OC2(C(=O)O)CCCC2)C(=O)N[C@@H]2C(=O)N(S(=O)(=O)O)[C@@H]2CNC(=O)c2cc(=O)c(O)cn2O)cs1` [Example 66, 1-({[(1Z)-1-(2-amino-1,3-thiazol-4-yl)-2-{[(2R,3S)-2-({[(1,5-dihydroxy-4-oxo-1,4-dihydropyridin-2-yl)carbonyl]amino}methyl)-4-oxo-1-sulfoazetidin-3-yl]amino}-2-oxoethylidene]amino}oxy)cyclopentanecarboxylic acid], the MIC [1] was 0.5 µg/mL (≈ 0.794 µM), the MIC [2] was 0.125 µg/mL (≈ 0.199 µM) and the MIC [3] was 0.5 µg/mL (≈ 0.794 µM).
In the case of `CC(C)(O/N=C(\C(=O)N[C@@H]1C(=O)N(S(=O)(=O)O)[C@@H]1CNC(=O)c1cccc(NC(=O)c2cc(=O)c(O)cn2O)c1)c1csc(N)n1)C(=O)O` [Example 67, 2-({[(1Z)-1-(2-amino-1,3-thiazol-4-yl)-2-{[(2R,3S)-2-{[(3-{[(1,5-dihydroxy-4-oxo-1,4-dihydropyridin-2-yl)carbonyl]amino}benzoyl)amino]methyl}-4-oxo-1-sulfoazetidin-3-yl]amino}-2-oxoethylidene]amino}oxy)-2-methylpropanoic acid], the MIC [1] is reported as 4 µg/mL (≈ 5.54 µM), the MIC [2] is reported as 4 µg/mL (≈ 5.54 µM) and the MIC [3] is reported as 2 µg/mL (≈ 2.77 µM).
For `CC(C)(O/N=C(\C(=O)N[C@@H]1C(=O)N(S(=O)(=O)O)[C@@H]1CNS(=O)(=O)c1cccc(C(=O)NCc2cc(=O)c(O)cn2O)c1)c1csc(N)n1)C(=O)O` [Example 68, 2-({[(1Z)-1-(2-amino-1,3-thiazol-4-yl)-2-{[(2R,3S)-2-({[(3-{[(1,5-dihydroxy-4-oxo-1,4-dihydropyridin-2-yl)methyl]carbamoyl}phenyl)sulfonyl]amino}methyl)-4-oxo-1-sulfoazetidin-3-yl]amino}-2-oxoethylidene]amino}oxy)-2-methylpropanoic acid], the MIC [1] was 4 µg/mL (≈ 5.18 µM), the MIC [2] was 1 µg/mL (≈ 1.29 µM) and the MIC [3] was 4 µg/mL (≈ 5.18 µM).
Compound `Nc1nc(/C(=N/OCC(=O)O)C(=O)N[C@@H]2C(=O)N(S(=O)(=O)O)[C@@H]2CNC(=O)NCc2cc(=O)c(O)cn2O)cs1` [Example 69, ({[(1Z)-1-(2-amino-1,3-thiazol-4-yl)-2-({(2R,3S)-2-[({[(1,5-dihydroxy-4-oxo-1,4-dihydropyridin-2-yl)methyl]carbamoyl}amino)methyl]-4-oxo-1-sulfoazetidin-3-yl}amino)-2-oxoethylidene]amino}oxy)acetic acid] has an MIC [1] of 0.25 µg/mL (≈ 0.414 µM), an MIC [2] of 1 µg/mL (≈ 1.65 µM) and an MIC [3] of 0.25 µg/mL (≈ 0.414 µM).
